The compounds below were run against T1, wild-type HIV-1 protease (Human immunodeficiency virus type 1 group M subtype B, UniProt P04585) (assay: Assay for Inhibition of Microbial Expressed HIV Protease (peptide substrate cleavage, LC-MS/MS readout)). Conditions: E. coli expressed wild-type HIV-1 protease, mean of at least two independent experiments, read-out: HIV Pr Enzyme HIV1 PR IC50.
T1 construct: Escherichia coli expressed wild-type HIV-1 protease protein
Format: biochemical
Method in brief: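 Cleavage of Val-Ser-Gln-Asn-(β-naphthyl)Ala-Pro-Ile-Val (400 μM) by recombinant HIV-1 protease ([…]) ran 1 h at 30 °C after a 30 min room-temperature inhibitor preincubation in 50 mM sodium acetate pH 5.5. Product peak areas by LC-MS/MS gave inhibition; values average at least two independent runs.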

Structure (SMILES) | IC50 [nM]
C[C@H](c1cccc(C(=O)N2Cc3nccnc3C2)c1)N1C(=N)NC(c2ccc(F)cc2)(c2ccc(F)cc2)C1=O [Compound 186, 3-{(1R)-1-[3-(5,7-dihydro-6H-pyrrolo[3,4-b]pyrazin-6-ylcarbonyl)phenyl]ethyl}-5,5-bis(4-fluorophenyl)-2-iminoimidazolidin-4-one] | 3.24
N=C1NC(c2ccccc2)(c2ccccc2)C(=O)N1Cc1cc(C(=O)N2Cc3ccccc3C2)ccn1 [Compound 396, 3-{[4-(1,3-dihydro-2H-isoindol-2-ylcarbonyl)pyridin-2-yl]methyl}-2-imino-5,5-diphenylimidazolidin-4-one] | 16.7
N=C1N[C@](CCC2CC2)(c2ccc(F)cc2)C(=O)N1C(CCc1ccccc1)c1ccc(C(F)(F)F)c(C(=O)N2CCn3c(nnc3C(F)(F)F)C2)c1 (stereo partly drawn) [Compound 37, (5R)-5-(2-cyclopropylethyl)-5-(4-fluorophenyl)-2-imino-3-{3-phenyl-1-[4-(trifluoromethyl)-3-{[3-(trifluoromethyl)-5,6-dihydro-[1,2,4]triazolo[4,3-a]pyrazin-7(8H)-yl]carbonyl}phenyl]propyl} imidazolidin-4-one] | 3.89
N=C1NC(c2ccc(F)cc2)(c2ccc(F)cc2)C(=O)N1Cc1cccc(C(=O)N2Cc3cc(F)c(F)cc3C2)c1 [Compound 197, 3-{3-[(5,6-difluoro-l,3-dihydro-2H-isoindol-2-yl)carbonyl]benzyl}-5,5-bis(4-fluorophenyl)-2-iminoimidazolidin-4-one] | 5.25
CC(C)CC1(c2ccccc2)NC(=N)N(Cc2cccc(C(=O)N3Cc4cncnc4C3)c2)C1=O (centres unmarked) [Compound 253, 3-[3-(5,7-dihydro-6H-pyrrolo[3,4-d]pyrimidin-6-ylcarbonyl)benzyl]-2-imino-5-(2-methylpropyl)-5-phenylimidazolidin-4-one] | 20.1
N=C1NC(c2ccccc2)(c2ccccc2)C(=O)N1Cc1ccc(F)c(C(=O)N2Cc3cccnc3C2)c1 [Compound 386, 3-[3-(5,7-dihydro-6H-pyrrolo[3,4-b]pyridin-6-ylcarbonyl)-4-fluorobenzyl]-2-imino-5,5-diphenylimidazolidin-4-one] | 28.2
N=C1N[C@](CCCC(F)(F)F)(c2ccc(F)cc2)C(=O)N1Cc1ccc(C(F)(F)F)c(C(=O)N2Cc3cnc(-c4cccc(-c5ccn[nH]5)c4)nc3C2)c1 [Compound 40, (5R)-5-(4-fluorophenyl)-2-imino-3-[3-({2-[3-(1H-pyrazol-5-yl)phenyl]-5,7-dihydro-6H-pyrrolo[3,4-d]pyrimidin-6-yl}carbonyl)-4-(trifluoromethyl)benzyl]-5-(4,4,4-trifluorobutyl)imidazolidin-4-one] | 4.13
CC(C)CC[C@]1(c2ccccc2)NC(=N)N([C@H](C)c2cccc(C(=O)N3CCN(C)C(=O)C3)c2)C1=O [Compound 272, 4-[(3-{(1R)-1-[2-imino-4-(3-methylbutyl)-5-oxo-4-phenylimidazolidin-1-yl]ethyl}phenyl)carbonyl]-1-methylpiperazin-2-one] | 28.3
N#Cc1ncc2c(n1)CN(C(=O)c1cc(CN3C(=N)NC(c4ccccc4)(c4ccccc4)C3=O)ccc1F)C2 [Compound 384, 6-({2-fluoro-5-[(2-imino-5-oxo-4,4-diphenylimidazolidin-1-yl)methyl]phenyl}carbonyl)-6,7-dihydro-5H-pyrrolo[3,4-d]pyrimidine-2-carbonitrile] | 21.6
N#Cc1ncc2c(n1)CN(C(=O)c1cc(CN3C(=N)NC(c4ccccc4)(c4ccccc4)C3=O)ccc1C(F)(F)F)C2 [Compound 136, 6-({5-[(2-imino-5-oxo-4,4-diphenylimidazolidin-1-yl)methyl]-2-(trifluoromethyl)phenyl}-carbonyl)-6,7-dihydro-5H-pyrrolo[3,4-d]pyrimidine-2-carbonitrile] | 1.81
N=C1NC(c2ccc(F)cc2)(c2ccc(F)cc2)C(=O)N1Cc1cccc(C(=O)N2Cc3nccnc3C2)c1 [Compound 200, 3-[3-(5,7-dihydro-6H-pyrrolo[3,4-b]pyrazin-6-ylcarbonyl)benzyl]-5,5-bis(4-fluorophenyl)-2-iminoimidazolidin-4-one] | 14.2
